Laboratory results reported in publication PMC6897958, “Structural basis of ligand selectivity and disease mutations in cysteinyl leukotriene receptors” (Nature Communications, 2019).

How the values were obtained:
CysLT1R [1] = conditions: Supplementary Table 3 ref ref.2; cited from earlier work
CysLT1R [2] = assay: IC50 toward CysLT1R of the benzoxazine SAR series, quoted from the literature; conditions: CysLT1R over CysLT2R; SAR series of ref [30]
CysLT2R [3] = conditions: Supplementary Table 3 ref ref.2; cited from earlier work
CysLT2R [4] = assay: IC50 toward CysLT2R of the benzoxazine SAR series, quoted from the literature; conditions: CysLT2R over CysLT1R; SAR series of ref [30]
CysLT1R wild type = CysLT1R wild type (Homo sapiens, UniProt Q9Y271); assay: cell-based; conditions: HEK293, read-out: % IP1 production (normalized), single replicate values, log[Pranlukast] -11 M; CysLT1-wt
Sequence of CysLT1R wild type (Q9Y271 whole entry): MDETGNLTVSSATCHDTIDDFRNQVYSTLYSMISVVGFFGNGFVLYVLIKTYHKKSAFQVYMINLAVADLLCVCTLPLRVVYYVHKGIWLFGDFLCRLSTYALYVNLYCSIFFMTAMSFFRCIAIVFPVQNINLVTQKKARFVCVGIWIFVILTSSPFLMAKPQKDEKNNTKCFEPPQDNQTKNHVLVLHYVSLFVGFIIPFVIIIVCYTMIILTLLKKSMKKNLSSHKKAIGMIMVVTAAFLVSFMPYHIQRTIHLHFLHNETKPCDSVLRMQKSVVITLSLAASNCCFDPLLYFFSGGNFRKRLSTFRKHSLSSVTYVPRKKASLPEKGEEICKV

In the case of `O=C(O)CCC(=O)N1C[C@@H](C(=O)O)Oc2c(NC(=O)c3ccc(OCCCCc4ccccc4)cc3)cccc21` [cpd 13e], the IC50 (CysLT1R [1]) is given as < 1 nM, the “selectivity for CysLT1R” value (CysLT1R [2]) is given as 1,800 fold and the IC50 (CysLT2R [3]) is given as 1800 nM.

In the case of `O=C(O)CCCN1C[C@@H](C(=O)O)Oc2c(NC(=O)c3ccc(OCCCCCc4ccccc4)cc3)cccc21` [cpd 15b], the IC50 (CysLT1R [1]) is listed as 120 nM, the “selectivity for CysLT2R” value (CysLT2R [4]) is listed as 200 fold and the IC50 (CysLT2R [3]) is listed as 0.62 nM.

`O=C(Nc1cccc2c(=O)cc(-c3nnn[nH]3)oc12)c1ccc(OCCCCc2ccccc2)cc1` [pranlukast] gave a remaining activity at 10 pM (CysLT1R wild type) of 94.3%.
